In ChEMBL document CHEMBL2073882, “Wild-type p53-mediated induction of rat mdr1b expression by the anticancer drug daunorubicin” (J Biol Chem, 1998):

Target: ATP-dependent translocase ABCB1 (Rattus norvegicus, UniProt P43245)
Experiment: TP_TRANSPORTER: RNase protection assay in vitro, rat hepatoma H-4-II-E cells
Format: functional, cell-based

ATP-dependent translocase ABCB1, sequence (P43245 whole entry): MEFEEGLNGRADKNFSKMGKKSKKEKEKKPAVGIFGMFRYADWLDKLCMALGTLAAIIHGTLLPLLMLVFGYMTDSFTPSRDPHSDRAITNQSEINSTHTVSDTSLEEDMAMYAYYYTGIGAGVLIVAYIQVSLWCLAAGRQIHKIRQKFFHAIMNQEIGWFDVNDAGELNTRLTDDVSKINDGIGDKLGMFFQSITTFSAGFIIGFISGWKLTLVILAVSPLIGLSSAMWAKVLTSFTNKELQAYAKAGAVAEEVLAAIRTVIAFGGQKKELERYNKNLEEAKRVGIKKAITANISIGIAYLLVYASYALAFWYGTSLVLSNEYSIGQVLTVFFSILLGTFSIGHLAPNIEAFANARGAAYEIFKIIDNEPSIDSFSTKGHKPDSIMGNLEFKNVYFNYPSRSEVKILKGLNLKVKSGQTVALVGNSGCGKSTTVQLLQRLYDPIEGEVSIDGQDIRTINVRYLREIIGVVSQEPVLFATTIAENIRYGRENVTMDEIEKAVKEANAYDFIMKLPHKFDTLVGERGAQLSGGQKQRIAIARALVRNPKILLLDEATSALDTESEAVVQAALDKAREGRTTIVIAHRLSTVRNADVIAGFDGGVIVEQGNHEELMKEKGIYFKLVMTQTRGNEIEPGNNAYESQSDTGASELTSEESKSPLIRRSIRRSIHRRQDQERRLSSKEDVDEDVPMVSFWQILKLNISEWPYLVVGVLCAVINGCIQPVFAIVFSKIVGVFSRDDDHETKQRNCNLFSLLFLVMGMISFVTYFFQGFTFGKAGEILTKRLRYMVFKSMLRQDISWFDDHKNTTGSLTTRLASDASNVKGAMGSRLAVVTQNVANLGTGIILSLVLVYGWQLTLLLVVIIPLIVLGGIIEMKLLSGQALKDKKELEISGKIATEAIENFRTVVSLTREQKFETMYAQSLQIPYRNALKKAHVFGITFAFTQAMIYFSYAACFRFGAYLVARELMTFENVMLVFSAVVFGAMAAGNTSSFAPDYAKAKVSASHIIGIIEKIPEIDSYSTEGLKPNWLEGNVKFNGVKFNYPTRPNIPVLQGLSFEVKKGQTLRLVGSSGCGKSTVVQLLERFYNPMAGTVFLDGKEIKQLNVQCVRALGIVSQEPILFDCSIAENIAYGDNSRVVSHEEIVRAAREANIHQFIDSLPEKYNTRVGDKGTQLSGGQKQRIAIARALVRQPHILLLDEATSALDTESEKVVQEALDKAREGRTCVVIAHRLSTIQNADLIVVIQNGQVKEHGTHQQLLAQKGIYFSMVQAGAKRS

## COc1cccc2c1C(=O)c1c(O)c3c(c(O)c1C2=O)C[C@@](O)(C(C)=O)C[C@@H]3O[C@H]1C[C@H](N)[C@H](O)[C@H](C)O1 [DAUNORUBICIN]
  Activity: inducer [+]
